From PubChem BioAssay AID1963868 (Molecular Pharmacology Branch, DTP, NCI, 2024)

System: KRAS PDC tumor spheroids (HUVEC+MSC), viability
Assay: Anticancer human tumor 254851-301-R-J1-PDC patient-derived colon carcinoma cell line growth inhibition [KRAS2]
Details: for IC50: curve of first compound; for viability, T/C: stronger effect = lower value; active = viability on the fitted dose curve at most 10% of control; inactive = the rest
How it was run: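 KRAS-mutant tumor cells were grown as spheroids with HUVEC endothelial cells and human MSCs as stroma. Targeted agents were tested alone and with KRAS pathway inhibitors. Doses started at or near clinical Cmax, or 10 microM, descending half-log.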

[1] = second compound 0.1 µM, first compound 0.000316 µM
[2] = second compound 0.1 µM, first compound 0.001 µM
[3] = second compound 0.1 µM, first compound 0.00316 µM
[4] = second compound 0.1 µM, first compound 0.01 µM
[5] = second compound 0.1 µM, first compound 0.0316 µM
[6] = second compound 0.316 µM, first compound 0.000316 µM
[7] = second compound 0.316 µM, first compound 0.001 µM
[8] = second compound 0.316 µM, first compound 0.00316 µM
[9] = second compound 0.316 µM, first compound 0.01 µM
[10] = second compound 0.316 µM, first compound 0.0316 µM
[11] = second compound 1 µM, first compound 0.000316 µM
[12] = second compound 1 µM, first compound 0.001 µM
[13] = second compound 1 µM, first compound 0.00316 µM
[14] = second compound 1 µM, first compound 0.01 µM
[15] = second compound 1 µM, first compound 0.0316 µM
[16] = second compound 3.16 µM, first compound 0.000316 µM
[17] = second compound 3.16 µM, first compound 0.001 µM
[18] = second compound 3.16 µM, first compound 0.00316 µM
[19] = second compound 3.16 µM, first compound 0.01 µM
[20] = second compound 3.16 µM, first compound 0.0316 µM
[21] = second compound 10 µM, first compound 0.000316 µM
[22] = second compound 10 µM, first compound 0.001 µM
[23] = second compound 10 µM, first compound 0.00316 µM
[24] = second compound 10 µM, first compound 0.01 µM
[25] = second compound 10 µM, first compound 0.0316 µM
[26] = second compound 0.1 µM, first compound 0.1 µM
[27] = second compound 0.316 µM, first compound 0.1 µM
[28] = second compound 1 µM, first compound 0.1 µM
[29] = second compound 3.16 µM, first compound 0.1 µM
[30] = second compound 10 µM, first compound 0.1 µM
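Also: spheroids exposed to compounds for seven days before readout.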
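For viability, T/C in this document: 100% = DMSO vehicle control luminescence of the spheroids.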

CC(=O)Nc1cccc(-n2c(=O)n(C3CC3)c(=O)c3c(Nc4ccc(I)cc4F)n(C)c(=O)c(C)c32)c1 + COc1cc2nc(C)nc(NC(C)c3cc(N)cc(C(F)(F)F)c3)c2cc1OC1CCOC1
2.19 nM: IC50 (second compound 3.16 µM)
0.663 nM: IC50 (second compound 10 µM)
active: viability, T/C [5] 2.7% | viability, T/C [9] 6.64% | viability, T/C [10] 2.56% | viability, T/C [14] 5.69% | viability, T/C [15] 2.26% | viability, T/C [19] 4.02% | viability, T/C [20] 2.15% | viability, T/C [23] 3.27% | viability, T/C [24] 2.32% | viability, T/C [25] 1.62%
3.89 nM: IC50 (second compound 0.1 µM)
inactive: viability, T/C (second compound 0.1 µM, first compound 0.0001 µM) 105% | viability, T/C [1] 97.8% | viability, T/C [2] 90.6% | viability, T/C [3] 60.4% | viability, T/C [4] 9.1% | viability, T/C (second compound 0.316 µM, first compound 0.0001 µM) 108% | viability, T/C [6] 99% | viability, T/C [7] 94% | viability, T/C [8] 62.7% | viability, T/C (second compound 1 µM, first compound 0.0001 µM) 111% | viability, T/C [11] 88.2% | viability, T/C [12] 89.9% | viability, T/C [13] 45.8% | viability, T/C (second compound 3.16 µM, first compound 0.0001 µM) 100% | viability, T/C [16] 97.7% | viability, T/C [17] 85.6% | viability, T/C [18] 33.4% | viability, T/C (second compound 10 µM, first compound 0.0001 µM) 84.8% | viability, T/C [21] 72.5% | viability, T/C [22] 38%
2.77 nM: IC50 (second compound 1 µM)
4.05 nM: IC50 (second compound 0.316 µM)

CN(C)C/C=C/C(=O)Nc1cc2c(Nc3ccc(F)c(Cl)c3)ncnc2cc1O[C@H]1CCOC1 + COc1cc2nc(C)nc(NC(C)c3cc(N)cc(C(F)(F)F)c3)c2cc1OC1CCOC1
> 100 nM: IC50 (second compound 0.1 µM) | IC50 (second compound 0.316 µM) | IC50 (second compound 1 µM) | IC50 (second compound 3.16 µM) | IC50 (second compound 10 µM)
inactive: viability, T/C [1] 104% | viability, T/C [2] 110% | viability, T/C [3] 108% | viability, T/C [4] 102% | viability, T/C [5] 96.5% | viability, T/C [26] 75.3% | viability, T/C [6] 102% | viability, T/C [7] 102% | viability, T/C [8] 91.9% | viability, T/C [9] 87.9% | viability, T/C [10] 88% | viability, T/C [27] 74.7% | viability, T/C [11] 99.5% | viability, T/C [12] 101% | viability, T/C [13] 92.7% | viability, T/C [14] 81.8% | viability, T/C [15] 85.9% | viability, T/C [28] 81.7% | viability, T/C [16] 91% | viability, T/C [17] 85.3% | viability, T/C [18] 89.7% | viability, T/C [19] 78.7% | viability, T/C [20] 84.6% | viability, T/C [29] 63.5% | viability, T/C [21] 78.2% | viability, T/C [22] 78.9% | viability, T/C [23] 81.6% | viability, T/C [24] 82.9% | viability, T/C [25] 65.9% | viability, T/C [30] 59.5%

COC(=O)c1ccc2c(C(=Nc3ccc(N(C)C(=O)CN4CCN(C)CC4)cc3)c3ccccc3)c(O)[nH]c2c1 + COc1cc2nc(C)nc(NC(C)c3cc(N)cc(C(F)(F)F)c3)c2cc1OC1CCOC1
inactive: viability, T/C [5] 90.9% | viability, T/C [26] 102% | viability, T/C (second compound 0.1 µM, first compound 0.316 µM) 89% | viability, T/C (second compound 0.1 µM, first compound 1 µM) 85.3% | viability, T/C (second compound 0.1 µM, first compound 3.16 µM) 98.7% | viability, T/C (second compound 0.1 µM, first compound 10 µM) 87% | viability, T/C [10] 88% | viability, T/C [27] 95% | viability, T/C (second compound 0.316 µM, first compound 0.316 µM) 92.5% | viability, T/C (second compound 0.316 µM, first compound 1 µM) 86.1% | viability, T/C (second compound 0.316 µM, first compound 3.16 µM) 90.2% | viability, T/C (second compound 0.316 µM, first compound 10 µM) 90.4% | viability, T/C [15] 86.9% | viability, T/C [28] 90.5% | viability, T/C (second compound 1 µM, first compound 0.316 µM) 83.3% | viability, T/C (second compound 1 µM, first compound 1 µM) 77.7% | viability, T/C (second compound 1 µM, first compound 3.16 µM) 80.1% | viability, T/C (second compound 1 µM, first compound 10 µM) 73% | viability, T/C [20] 93.2% | viability, T/C [29] 85.9% | viability, T/C (second compound 3.16 µM, first compound 0.316 µM) 88.9% | viability, T/C (second compound 3.16 µM, first compound 1 µM) 80.2% | viability, T/C (second compound 3.16 µM, first compound 3.16 µM) 59.2% | viability, T/C [25] 82.7% | viability, T/C [30] 87% | viability, T/C (second compound 10 µM, first compound 0.316 µM) 77.8% | viability, T/C (second compound 10 µM, first compound 1 µM) 61.3%
active: viability, T/C (second compound 3.16 µM, first compound 10 µM) 6.26% | viability, T/C (second compound 10 µM, first compound 3.16 µM) 1.22% | viability, T/C (second compound 10 µM, first compound 10 µM) 0.29%
1240 nM: IC50 (second compound 10 µM)
> 10000 nM: IC50 (second compound 0.1 µM) | IC50 (second compound 0.316 µM) | IC50 (second compound 1 µM)
3850 nM: IC50 (second compound 3.16 µM)
